According to patent publication EP4692088A1, “COMPOUND ACTING AS WRN HELICASE INHIBITOR” (SHANGHAI JEYOU PHARMACEUTICAL CO., LTD., priority 2023, dated 2024):

Tests used:
HCT116 = assay: γH2AX induction assay (HTRF Phospho-H2AX), HCT116; format: cell-based; details: Homo sapiens, HCT-116, incubated for 2-3 days, read-out: γ-H2AX induction HCT-116 (EC50 nM)
Procedure: (§1) SW48, HCT116, and SW620 cells were plated into 96-well cell culture plates at a density of 15,000-25,000 cells/well and cultured overnight in a 37°C incubator. The test compounds, which were gradient-diluted with DMSO, were added and incubated for 2-3 days. The γ-H2AX level was detected using HTRF Phospho-H2AX (SER139) Detection Kits. The 4× Lysis buffer and Detection buffer were equilibrated to room temperature for later use. The 4× Lysis buffer was diluted to 1× Lysis buffer using ddH2O. After the medium was aspirated, 50 µL of 1× Lysis buffer was added to each well and shaken at room temperature for 30 minutes for lysis. 16 µL of lysate was transferred to a 384-well plate, followed by the addition of 4 µL of diluted antibody mixture (Phospho-H2AX d2 antibody and Phospho-H2AX Eu Cryptate antibody were each diluted 20-fold using Detection buffer, and the two antibodies were then mixed uniformly at a 1:1 volume ratio). The mixture was incubated at room temperature for 2-24 h, and fluorescence signals at […] and 615 nm were detected using a microplate reader. Parallel treatment plates were simultaneously set up in the experiment, and cell viability was detected using the CellTiter-Glo kit. The CellTiter-Glo reagent was equilibrated to room temperature, and an appropriate amount was added to the cell plate, followed by shaking at room temperature for 12 min. The luminescence signal was detected using a microplate reader.
(§2) The fluorescence signal values of DMSO-treated wells and positive drug-treated wells were used as negative and positive controls, respectively, to calculate the level of γ-H2AX induced by the compounds. The concentration-induction rate curve was fitted using the "log(agonist) vs. response -- Variable slope (four parameters)" equation in GraphPad Prism 8 software to obtain the EC50. [formula] [formula]

SW48 = assay: γH2AX induction assay (HTRF Phospho-H2AX), SW48; format: cell-based; details: Homo sapiens, SW-48, incubated for 2-3 days, read-out: γ-H2AX induction SW-48 (EC50 nM)
Procedure: as §1, §2

WRN enzyme = molecular target: T1, WRN enzyme (Homo sapiens, UniProt Q14191); assay: WRN helicase activity assay (unwinding of BHQ2/Cy5-labelled double-stranded DNA, fluorescence); format: biochemical; details: Table 3, 30 min pre-incubation, 30 min reaction
T1 construct: host or cells: eukaryotic cells (not further specified)
Excerpt: The WRN enzyme used in the experiment has a His-TEV tag at the N-terminus and is expressed in eukaryotic cells with a purity of 90%. The two single-stranded DNAs used for assay are labeled with BHQ2 and Cy5, respectively. When two fluorophores are in close proximity (when the DNA is in a double-stranded state), no fluorescence signal is detected due to the quenching effect. WRN has helicase activity, which enables the unwinding of double-stranded DNA to form single strands, thereby generating a fluorescence signal.
Two labeled single-stranded DNA strands were annealed to form double-stranded DNA. Annealing buffer: 12 mM Tris (pH 8.0), 300 mM NaCl, 12 mM MgCl2, 2 mM DTT. Annealing program: 95°C, 5 min.
2× WRN enzyme (2 nM) and 2× substrate (100 nM double-stranded DNA, 1000 nM capture DNA, 100 µM ATP) were prepared using buffer (20 mM Bicine, 10 mM KCl, 1 mM MgCl2, 0.005% BSG, 1 mM TCEP, 0.1% F-127, pH 7.5). The test compound was dissolved in DMSO to 10 mM and was gradient-diluted using a 96-well V-bottom plate. 0.5 µL of compound was added to 25 µL of 2× WRN enzyme and incubated at room temperature for 30 min. 25 µL of 2× substrate was added, and the reaction was carried out at room temperature for 30 min. Detection was performed using a microplate reader with an excitation wavelength of 620 nm and an emission wavelength of 685 nm.
The concentration-effect curve was fitted using GraphPad Prism 8 software, and the compound concentration for 50% inhibition (IC50) was calculated. The percentage inhibition for each compound concentration was first calculated, and then the concentration-effect curve was fitted using the "log(inhibitor) vs. normalized response -- Variable slope" equation in GraphPad Prism 8 software to obtain the IC50. [formula] • Positive control: 25 µL 2× WRN enzyme + 0.5 µL DMSO + 25 µL 2× substrate • Negative control: 25 µL 2× buffer + 0.5 µL DMSO + 25 µL 2× substrate

SW620 cells [1] = assay: Cell proliferation assay (CellTiter-Glo), SW620; format: cell-based; details: Homo sapiens, 120 h, SW-620 (MSS), 5 days incubation
Procedure: SW48 cells were plated at a density of 1,500 cells/well, and LoVo, HCT116, and SW620 cells were plated at a density of 800 cells/well in a 96-well cell culture plate, and cultured in a 37°C incubator overnight. The test compounds, which were gradient-diluted with DMSO, were added, and after incubation for 5 days, cell viability was detected using a CellTiter-Glo kit. The CellTiter-Glo reagent was equilibrated to room temperature, and an appropriate amount was added to the cell plate, followed by shaking at room temperature for 12 min. The luminescence signal was detected using a microplate reader.
The luminescence signal values of the DMSO-treated wells and cell-free wells were used as negative and positive controls, respectively, to calculate the inhibition rate of compound on cell proliferation. The concentration-inhibition curve was fitted using the "log(inhibitor) vs. normalized response -- Variable slope" equation in GraphPad Prism 8 software to obtain the IC50. [formula]

SW620 cells [2] = assay: γH2AX induction assay (HTRF Phospho-H2AX), SW620; format: cell-based; details: Homo sapiens, SW-620 (MSS), incubated for 2-3 days, read-out: γ-H2AX induction SW-620 (EC50 nM)
Procedure: as §1, §2

T1 sequence (Q14191 whole entry): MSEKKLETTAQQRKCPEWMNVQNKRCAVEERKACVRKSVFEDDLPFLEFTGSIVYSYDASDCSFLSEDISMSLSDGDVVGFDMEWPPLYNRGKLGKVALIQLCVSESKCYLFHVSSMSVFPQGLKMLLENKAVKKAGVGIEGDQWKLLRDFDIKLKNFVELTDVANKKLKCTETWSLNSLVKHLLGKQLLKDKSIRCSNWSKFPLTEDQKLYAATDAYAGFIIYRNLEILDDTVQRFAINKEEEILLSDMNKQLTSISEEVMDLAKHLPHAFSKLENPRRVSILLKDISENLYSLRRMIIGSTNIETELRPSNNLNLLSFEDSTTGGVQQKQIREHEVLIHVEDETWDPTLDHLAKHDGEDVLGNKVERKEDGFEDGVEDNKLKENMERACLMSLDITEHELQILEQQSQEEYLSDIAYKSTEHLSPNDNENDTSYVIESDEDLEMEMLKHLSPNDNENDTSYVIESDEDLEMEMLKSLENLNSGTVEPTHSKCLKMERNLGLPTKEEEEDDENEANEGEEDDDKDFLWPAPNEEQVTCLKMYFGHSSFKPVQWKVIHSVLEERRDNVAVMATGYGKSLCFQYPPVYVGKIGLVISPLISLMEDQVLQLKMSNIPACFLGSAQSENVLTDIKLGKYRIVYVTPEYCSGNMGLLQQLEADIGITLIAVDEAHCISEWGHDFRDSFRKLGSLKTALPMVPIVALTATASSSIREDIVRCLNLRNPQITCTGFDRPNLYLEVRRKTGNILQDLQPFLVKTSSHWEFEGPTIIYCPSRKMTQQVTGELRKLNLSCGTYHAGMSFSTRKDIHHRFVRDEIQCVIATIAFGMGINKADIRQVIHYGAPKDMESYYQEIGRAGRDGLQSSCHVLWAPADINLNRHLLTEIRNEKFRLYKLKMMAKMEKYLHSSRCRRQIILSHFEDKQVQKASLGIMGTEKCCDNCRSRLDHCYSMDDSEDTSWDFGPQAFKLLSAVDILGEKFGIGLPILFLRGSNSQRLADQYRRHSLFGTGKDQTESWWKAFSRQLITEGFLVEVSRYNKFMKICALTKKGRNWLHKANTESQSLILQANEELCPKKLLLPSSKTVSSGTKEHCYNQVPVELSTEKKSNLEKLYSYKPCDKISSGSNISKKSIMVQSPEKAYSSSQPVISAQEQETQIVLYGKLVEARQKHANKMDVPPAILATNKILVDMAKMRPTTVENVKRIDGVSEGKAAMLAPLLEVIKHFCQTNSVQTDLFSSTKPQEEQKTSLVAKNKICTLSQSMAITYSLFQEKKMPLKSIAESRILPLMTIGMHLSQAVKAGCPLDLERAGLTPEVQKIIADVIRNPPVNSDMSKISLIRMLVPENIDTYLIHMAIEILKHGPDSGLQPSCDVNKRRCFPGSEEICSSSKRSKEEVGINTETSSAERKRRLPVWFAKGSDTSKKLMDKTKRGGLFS

Row | Structure (SMILES) | EC50 (HCT116) | EC50 (SW48) | IC50 (WRN enzyme) | IC50 (SW620 cells [1]) | EC50 (SW620 cells [2])
1 | CCc1c(N2CCN(C(=O)c3ncnc(C)c3O)CC2)c(=O)c2nn(C3=CCOCC3)nc2n1CC(=O)Nc1ccc(C(F)(F)F)cc1Cl [Example 4] | 128 nM | 53.8 nM | 60.9 nM | > 25000 nM | > 10000 nM
2 | CCc1c(N2CCN(C(=O)c3ncnc(C)c3O)CC2)c(=O)c2nn(C3=CCOCC3)nc2n1CC(=O)Nc1cc(F)c(C(F)(F)F)cc1Cl [Example 15] | 97.1 nM | 62.9 nM | 70.2 nM | > 25000 nM | > 10000 nM
3 | CCc1c(N2CCN(C(=O)c3ncnc(C)c3O)CC2)c(=O)c2nn(C3=CCOCC3)nc2n1CC(=O)Nc1cc(F)c(Cl)cc1Cl [Example 22] | 168 nM | 128 nM | 72.1 nM | > 25000 nM | > 10000 nM
